This is an account of results in PubChem BioAssay (NCI).

Each structure is given as a SMILES string. “And” between values parts separate entries of the source, which are not always exact repeats. Equal values may be shown once.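 Method: 48-hour compound exposure of cells in 96-well plates, five concentrations, linear interpolation of endpoints. GI50 = concentration required for 50% inhibition of growth. TGI: concentration producing complete growth inhibition.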

Among the test systems are A498 renal; HCC-2998 colon; HOP-62 NSCLC; HT29 colon; MDA-MB-435; NCI-H226 lung; SF-295 CNS; SK-MEL-5 melanoma; UACC-257 melanoma; K-562 leukemia.
Assay in all cases: inhibition of tumour cell growth, NCI panel, 48 h

As to `S=C(N/N=C(/c1ccccc1)c1ccccn1)Nc1cccc(Cl)c1`, the GI50 with A498 renal is 195 nM; with HCC-2998 colon it was 2000 nM; in the assay on HOP-62 NSCLC, 2260 nM; in the assay with HT29 colon, 662 nM and 73.8 nM; in the assay with MDA-MB-435 it was 1090 nM; in the assay on NCI-H226 lung it was 219 nM. Besides, the GI50 in the assay on SF-295 CNS was 968 nM; in the assay on SK-MEL-5 melanoma, 358 nM; with UACC-257 melanoma, 1.72 nM. The TGI in the assay on A498 renal is 1.72 µM and 6.29 µM; with HCC-2998 colon, 5.04 µM and 5.92 µM; with HOP-62 NSCLC it was 4.18 µM and 17.7 µM; in the assay on HT29 colon it was 11.9 µM; in the assay on MDA-MB-435 it was 2.95 µM and 4.56 µM; in the assay with NCI-H226 lung, 1.64 µM and 4.2 µM. Further, the TGI is 5.36 µM and 5.17 µM with SF-295 CNS; 1460 nM and 4080 nM in the assay with SK-MEL-5 melanoma.

As to `CC/C=C\C/C=C\C[C@H]1C/C=C2/C(=O)C=C[C@H]2C/C=C\CCC(=O)O1`, the GI50 in the assay with A498 renal was 4070 nM; with HCC-2998 colon, 2770 nM; in the assay with HOP-62 NSCLC it was 3940 nM; in the assay on HT29 colon, 2550 nM; in the assay on K-562 leukemia it was 2840 nM; in the assay on MDA-MB-435 it was 3030 nM. Further, the GI50 in the assay on NCI-H226 lung was 2780 nM; in the assay on SF-295 CNS, 3010 nM; with SK-MEL-5 melanoma, 2240 nM. The TGI in the assay on A498 renal is 13.3 µM; with HCC-2998 colon, 5.37 µM; in the assay with HOP-62 NSCLC, 10.6 µM; in the assay on HT29 colon it was 6.49 µM; in the assay with K-562 leukemia, above 14.3 µM; in the assay on MDA-MB-435, 8.91 µM. In addition, the TGI in the assay on NCI-H226 lung amounted to 8.54 µM; with SF-295 CNS it was 9.29 µM; in the assay with SK-MEL-5 melanoma, 4410 nM.

As for `O=S(=O)(NCCCNc1cc(-c2cn(-c3ccccc3)nc2-c2cccc(O)c2)ccn1)c1ccc(Cl)cc1`, the GI50 is 329 nM with A498 renal; 1820 nM in the assay with HCC-2998 colon; 1520 nM in the assay on HOP-62 NSCLC; 471 nM with HT29 colon; 437 nM in the assay with K-562 leukemia; 1640 nM in the assay with MDA-MB-435. Moreover, the GI50 in the assay with NCI-H226 lung was 1770 nM; with SF-295 CNS it was 1420 nM; with SK-MEL-5 melanoma, 1230 nM. Further, the TGI in the assay with A498 renal is 2.24 µM; in the assay with HCC-2998 colon it was 3.46 µM; with HOP-62 NSCLC, 3.25 µM; in the assay on HT29 colon, 1.7 µM; with K-562 leukemia, 2.5 µM; with MDA-MB-435, 3.2 µM. Besides, the TGI came out at 5.13 µM with NCI-H226 lung, 3.29 µM in the assay with SF-295 CNS and 2550 nM in the assay on SK-MEL-5 melanoma.

With `Nc1c(C(=O)Nc2ccccc2)sc2nc3c(cc12)CCCC3`, the GI50 with A498 renal is 227 nM; with HCC-2998 colon it was 1990 nM; in the assay with HOP-62 NSCLC, 781 nM; in the assay with HT29 colon it was 740 nM; in the assay with K-562 leukemia it was 436 nM; in the assay with MDA-MB-435 it was 172 nM. The GI50 in the assay on NCI-H226 lung was 3310 nM; in the assay with SF-295 CNS it was 635 nM; with SK-MEL-5 melanoma it was 365 nM. Besides, the TGI in the assay with A498 renal is 30 µM; in the assay with HCC-2998 colon, above 37.2 µM; in the assay on HOP-62 NSCLC, above 67.6 µM; in the assay with HT29 colon it was above 26.3 µM; with K-562 leukemia it was above 100 µM; in the assay on MDA-MB-435, 0.415 µM. The values for the TGI with NCI-H226 lung, in the assay on SF-295 CNS and in the assay on SK-MEL-5 melanoma were above 100 µM, 49.6 µM and 2240 nM, respectively.

As for `CC(C)Oc1ccc(C(=O)N[C@H](CNC(=O)CN(C)C)Cc2ccc(-c3cn4cccc([C@H](C)O)c4n3)cc2)cc1Cl`, the GI50 in the assay with A498 renal was 213 nM; in the assay with HCC-2998 colon, 69.5 nM; in the assay with HT29 colon, 35 nM; in the assay with K-562 leukemia, 37.5 nM; with MDA-MB-435, 29.3 nM; with NCI-H226 lung, 10900 nM. Moreover, the GI50 in the assay with SF-295 CNS is 37.2 nM; in the assay on SK-MEL-5 melanoma, 330 nM; in the assay with UACC-257 melanoma, 1360 nM. In addition, the TGI came out at 13.9 µM in the assay with A498 renal; 17.3 µM with HCC-2998 colon; 13 µM with HT29 colon; 14.7 µM with K-562 leukemia; 12.8 µM with MDA-MB-435; 28.8 µM in the assay with NCI-H226 lung. Also, the TGI with SF-295 CNS came to 14.6 µM; in the assay with SK-MEL-5 melanoma, 2820 nM; in the assay on UACC-257 melanoma, 11.3 µM.

`CCCN1CCN(c2ccc3nc(-c4ccc5nc(-c6ccc(OCC)c(OCC)c6)[nH]c5c4)[nH]c3c2)CC1`: the GI50 in the assay on A498 renal is 538 nM; in the assay on HCC-2998 colon it was 533 nM; with HOP-62 NSCLC, 956 nM; with HT29 colon, 294 nM; with MDA-MB-435, 532 nM; in the assay with NCI-H226 lung, 495 nM. In addition, the values for the GI50 in the assay with SF-295 CNS, with SK-MEL-5 melanoma and in the assay on UACC-257 melanoma were 391 nM, 424 nM and 640 nM, respectively. The TGI came to 1.82 µM in the assay with A498 renal; 1.16 µM with HCC-2998 colon; 3.2 µM in the assay on HOP-62 NSCLC; 1.66 µM with HT29 colon; 1.81 µM in the assay on MDA-MB-435; 2.06 µM in the assay on NCI-H226 lung. Moreover, the TGI in the assay with SF-295 CNS is 2.03 µM; in the assay on SK-MEL-5 melanoma, 1770 nM; with UACC-257 melanoma it was 2.47 µM.

For `COc1ccc(-c2nocc2-c2cc(OC)c(OC)c(OC)c2)cc1`, the GI50 is 44.1 nM in the assay on A498 renal; 358 nM in the assay on HCC-2998 colon; 138 nM with HOP-62 NSCLC; 37.9 nM in the assay with HT29 colon; 42.6 nM in the assay with K-562 leukemia; 23.9 nM in the assay with MDA-MB-435. In addition, the GI50 in the assay on NCI-H226 lung is 14900 nM; in the assay with SF-295 CNS, 47.5 nM; in the assay with SK-MEL-5 melanoma, 73.6 nM. For the same compound, the TGI in the assay with A498 renal was 2.9 µM; with HCC-2998 colon it was 28 µM; with HOP-62 NSCLC, above 100 µM; in the assay on HT29 colon it was 4.76 µM; in the assay with K-562 leukemia it was above 100 µM; in the assay on MDA-MB-435 it was 0.13 µM. Moreover, the TGI turned out to be 56.1 µM in the assay with NCI-H226 lung, 16.9 µM in the assay on SF-295 CNS and 4450 nM with SK-MEL-5 melanoma.

Take `CC(=O)c1ccc(NCN2C(=O)c3ccccc3C2=O)cc1`: the TGI in the assay on A498 renal, in the assay with HCC-2998 colon, in the assay with HOP-62 NSCLC, in the assay with HT29 colon, in the assay on K-562 leukemia and in the assay on MDA-MB-435 was above 100 µM throughout. The TGI was above 100 µM in the assay on SF-295 CNS, above 100000 nM with SK-MEL-5 melanoma and above 100 µM with UACC-257 melanoma.

Turning to `CCN(CC(COc1ccc2c(c1)[n+]([O-])nc(N)[n+]2[O-])OC(C)=O)C(C)=O` (stereo not drawn), the TGI in the assay on A498 renal, in the assay with HOP-62 NSCLC, in the assay with HT29 colon, in the assay with K-562 leukemia, in the assay on MDA-MB-435 and in the assay with NCI-H226 lung was above 100 µM throughout. For the same compound, the TGI with SF-295 CNS is above 100 µM; with SK-MEL-5 melanoma, above 100000 nM; in the assay with UACC-257 melanoma it was above 100 µM.
